SMILES strings stand for the structures. Calls of active or inactive are those of the source.

The target in assay [1] is Protein disulfide-isomerase (Homo sapiens, UniProt P07237). In words: inhibition of PDI-driven insulin aggregation – biochemical, turbidity, absorbance, cherry-picked samples, dose response (AID 602350). Type of assay: functional.
The target of assay [2] is T1, Replicative DNA helicase DnaB (Mycobacterium tuberculosis, UniProt P9WMR3).
T1 sequence (P9WMR3 whole entry): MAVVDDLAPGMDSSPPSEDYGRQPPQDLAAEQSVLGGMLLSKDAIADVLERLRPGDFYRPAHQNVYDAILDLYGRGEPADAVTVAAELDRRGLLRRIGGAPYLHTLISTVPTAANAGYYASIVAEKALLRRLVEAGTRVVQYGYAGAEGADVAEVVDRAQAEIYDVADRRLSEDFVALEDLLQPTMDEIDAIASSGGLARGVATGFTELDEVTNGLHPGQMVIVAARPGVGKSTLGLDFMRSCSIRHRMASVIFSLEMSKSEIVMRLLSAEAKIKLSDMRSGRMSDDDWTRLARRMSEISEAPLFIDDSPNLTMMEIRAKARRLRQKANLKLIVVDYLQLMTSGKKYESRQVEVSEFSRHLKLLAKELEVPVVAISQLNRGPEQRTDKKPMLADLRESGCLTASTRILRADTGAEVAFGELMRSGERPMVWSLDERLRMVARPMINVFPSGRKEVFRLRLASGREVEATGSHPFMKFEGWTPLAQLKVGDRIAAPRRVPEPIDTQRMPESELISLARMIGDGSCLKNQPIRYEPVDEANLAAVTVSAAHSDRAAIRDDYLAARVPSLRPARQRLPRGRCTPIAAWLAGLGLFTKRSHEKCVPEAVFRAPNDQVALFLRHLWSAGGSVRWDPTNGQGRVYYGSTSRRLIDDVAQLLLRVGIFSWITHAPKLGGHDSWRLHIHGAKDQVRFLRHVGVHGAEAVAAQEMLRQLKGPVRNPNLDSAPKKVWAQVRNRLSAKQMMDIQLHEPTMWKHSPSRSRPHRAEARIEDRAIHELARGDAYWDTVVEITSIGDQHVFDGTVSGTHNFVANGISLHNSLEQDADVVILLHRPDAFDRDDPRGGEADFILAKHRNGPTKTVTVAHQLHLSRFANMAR
Kind of assay: DnaB intein splicing inhibitors, dose response, biochemical, cell-free fluorescence (AID 449749). Type of assay: functional.

Assay [3] relates to BJ. Kind of assay: cells. Type of assay: functional, cell-based. The note with it: Homo sapiens.
The next assay concerns the target T2, Protein RecA (Mycobacterium tuberculosis, UniProt P9WHJ3).
T2 sequence (P9WHJ3 whole entry): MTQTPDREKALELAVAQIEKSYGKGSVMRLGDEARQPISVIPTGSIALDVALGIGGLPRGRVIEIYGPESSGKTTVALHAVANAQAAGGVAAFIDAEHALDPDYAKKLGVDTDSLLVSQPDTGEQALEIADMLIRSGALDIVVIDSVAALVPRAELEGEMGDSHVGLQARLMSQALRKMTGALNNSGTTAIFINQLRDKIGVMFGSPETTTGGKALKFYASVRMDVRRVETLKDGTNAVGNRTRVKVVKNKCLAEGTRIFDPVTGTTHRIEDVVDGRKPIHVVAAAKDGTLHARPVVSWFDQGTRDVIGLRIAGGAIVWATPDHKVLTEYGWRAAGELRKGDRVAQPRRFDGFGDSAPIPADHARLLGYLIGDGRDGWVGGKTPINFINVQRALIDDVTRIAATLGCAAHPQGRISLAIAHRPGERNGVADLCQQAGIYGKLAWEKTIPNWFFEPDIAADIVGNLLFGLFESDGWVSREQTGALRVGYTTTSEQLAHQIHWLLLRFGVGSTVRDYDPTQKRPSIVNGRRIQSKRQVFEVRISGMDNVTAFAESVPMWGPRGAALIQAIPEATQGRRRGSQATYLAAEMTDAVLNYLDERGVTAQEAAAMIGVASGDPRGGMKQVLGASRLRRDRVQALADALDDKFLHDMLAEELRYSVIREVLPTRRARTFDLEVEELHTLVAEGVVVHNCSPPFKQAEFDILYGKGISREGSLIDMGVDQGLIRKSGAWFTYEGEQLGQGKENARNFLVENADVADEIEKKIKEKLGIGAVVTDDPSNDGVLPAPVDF
In words: Fluorescence Cell-Free Homogeneous Dose Retest to Identify Inhibitors of RecA-Intein Splicing Activity. [Related pubchem assays (depositor defined):AID2097, AID2223, AID489010, AID492950]. Type of assay: functional.

Assay [4] has as its system BJ. Kind of assay: BJ-TERT-LT-ST fibroblast viability loss – cell-based, RAS-independent, luminescence, dose response (AID 1935).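 Further: BJ fibroblasts immortalized with TERT plus LT and ST oncogenes.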 Type of assay: functional. The note with it: Homo sapiens.
For assay [5], the system named is BJ. Kind of assay: BJ-TERT fibroblast viability loss – cell-based, RAS-independent, luminescence, dose response (AID 1933). Type of assay: functional. The note with it: Homo sapiens.
Assay [6] concerns BJ. Kind of assay: growth inhibition of engineered Ras-driven BJ cells – cell-based, alamar blue fluorescence, cherrypicked samples, dose response (AID 2631).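 Further: confirmatory dose-response assay in RAS-dependent BJ fibroblasts engineered with TERT, LT and ST, with cytotoxicity read by fluorescence.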 Type of assay: functional. The note with it: Homo sapiens. On the technique in general: Alamar Blue is a resazurin reagent that responds to reducing activity.
The nature of assay [7]: DRD fibroblast viability loss – cell-based, non-viral oncogenic, luminescence, dose response (AID 1934). The note with it: Homo sapiens. Type of assay: functional.
Assay [8] in a line: reduction of Shn3 3'UTR-driven luciferase in osteoblasts – cell-based, Clone20 osteoblasts, firefly luciferase, cherry-picked, dose response (AID 624132).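 Further: firefly luciferase luminescence from reporter carrying the Shn3 3'UTR in osteoblasts.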 Type of assay: functional.
The target in assay [9] is T3, Probable nicotinate-nucleotide adenylyltransferase (Staphylococcus aureus (strain N315), UniProt P65502). Type of assay: functional, Staphylococcus aureus subsp. aureus N315. The note with it: read-out: IC50_Mean.
T3 sequence (P65502 whole entry): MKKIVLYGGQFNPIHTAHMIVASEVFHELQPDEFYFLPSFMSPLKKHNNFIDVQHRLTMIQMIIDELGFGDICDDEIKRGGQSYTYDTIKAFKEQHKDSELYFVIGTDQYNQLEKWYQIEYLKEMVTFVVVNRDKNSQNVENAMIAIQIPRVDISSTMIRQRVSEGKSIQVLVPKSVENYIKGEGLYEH
For assay [10], the target named is T3, Probable nicotinate-nucleotide adenylyltransferase. Type of assay: functional, Staphylococcus aureus subsp. aureus N315.
Assay [11] concerns the target Photoreceptor-specific nuclear receptor (Homo sapiens, UniProt Q9Y5X4). Type of assay: functional, cell-based.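 Further: CHO-S cells with Gal4-NCOR and VP16-NR2E3 two-hybrid luciferase reporter.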
Assay [12] is described as follows: loss of viability in HepG2 cells – cell-based, CellTiter-Glo, cherry-picked, cytotoxicity control for Shn3 inhibitor project, dose response (AID 624134). Type of assay: functional.
Assay [13] can be described thus: Counterscreen for AddAB inhibitors: absorbance-based bacterial cell-based high throughput dose response assay for inhibitors of bacterial viability. [Related pubchem assays (depositor defined):AID435030, AID449728, AID449731, AID488942, AID488955, AID488956]. Type of assay: functional. In general terms: The purpose of a counterscreen is to sort out artefacts and off-target activity.

The target of another assay is T4, Exodeoxyribonuclease V (Escherichia coli (strain K12), UniProt P04993+P07648+P08394).
T4 sequence (P04993 whole entry): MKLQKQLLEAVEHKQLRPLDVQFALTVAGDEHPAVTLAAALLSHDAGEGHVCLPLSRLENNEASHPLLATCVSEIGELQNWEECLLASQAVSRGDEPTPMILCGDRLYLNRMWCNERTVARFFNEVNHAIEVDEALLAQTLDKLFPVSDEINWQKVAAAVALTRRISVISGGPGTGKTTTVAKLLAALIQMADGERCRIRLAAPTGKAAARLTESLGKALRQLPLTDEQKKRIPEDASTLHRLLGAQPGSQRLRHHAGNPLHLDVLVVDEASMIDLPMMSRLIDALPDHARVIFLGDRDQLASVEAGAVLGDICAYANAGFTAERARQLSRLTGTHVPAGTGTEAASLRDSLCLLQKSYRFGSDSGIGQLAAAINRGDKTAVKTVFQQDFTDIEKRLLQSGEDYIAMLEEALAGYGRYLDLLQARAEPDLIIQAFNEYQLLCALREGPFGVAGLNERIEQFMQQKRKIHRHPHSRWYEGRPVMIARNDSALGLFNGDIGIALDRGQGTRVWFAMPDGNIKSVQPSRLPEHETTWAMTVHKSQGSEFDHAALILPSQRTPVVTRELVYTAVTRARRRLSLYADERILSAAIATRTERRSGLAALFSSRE
T4 sequence (P07648 whole entry): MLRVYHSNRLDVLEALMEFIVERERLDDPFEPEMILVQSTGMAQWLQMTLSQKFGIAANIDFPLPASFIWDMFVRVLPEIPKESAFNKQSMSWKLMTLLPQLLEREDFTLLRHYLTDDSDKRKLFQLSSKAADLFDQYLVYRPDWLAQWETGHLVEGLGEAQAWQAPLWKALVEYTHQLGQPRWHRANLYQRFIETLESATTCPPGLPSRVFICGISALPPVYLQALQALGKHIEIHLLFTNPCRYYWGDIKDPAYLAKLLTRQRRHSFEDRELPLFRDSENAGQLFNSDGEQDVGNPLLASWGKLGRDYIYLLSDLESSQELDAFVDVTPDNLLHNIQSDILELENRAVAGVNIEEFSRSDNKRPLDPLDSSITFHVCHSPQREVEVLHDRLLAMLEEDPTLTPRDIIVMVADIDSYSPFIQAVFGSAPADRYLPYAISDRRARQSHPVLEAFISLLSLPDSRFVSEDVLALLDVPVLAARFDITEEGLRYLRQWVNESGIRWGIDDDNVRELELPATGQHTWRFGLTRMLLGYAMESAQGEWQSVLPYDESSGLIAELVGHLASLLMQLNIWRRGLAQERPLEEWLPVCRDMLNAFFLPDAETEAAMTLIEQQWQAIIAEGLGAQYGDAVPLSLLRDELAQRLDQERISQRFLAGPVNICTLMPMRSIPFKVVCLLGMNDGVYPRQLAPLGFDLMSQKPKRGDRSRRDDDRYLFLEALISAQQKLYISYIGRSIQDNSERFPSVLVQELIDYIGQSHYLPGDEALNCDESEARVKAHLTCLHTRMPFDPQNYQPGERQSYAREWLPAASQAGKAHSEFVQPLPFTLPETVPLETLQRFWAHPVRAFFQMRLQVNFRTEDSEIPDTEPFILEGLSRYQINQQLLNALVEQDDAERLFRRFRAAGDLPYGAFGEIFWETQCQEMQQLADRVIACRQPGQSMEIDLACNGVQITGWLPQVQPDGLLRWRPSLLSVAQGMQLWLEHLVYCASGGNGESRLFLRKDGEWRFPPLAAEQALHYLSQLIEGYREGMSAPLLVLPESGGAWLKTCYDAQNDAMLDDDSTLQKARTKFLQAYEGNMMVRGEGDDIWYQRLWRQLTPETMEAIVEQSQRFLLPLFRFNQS
T4 sequence (P08394 whole entry): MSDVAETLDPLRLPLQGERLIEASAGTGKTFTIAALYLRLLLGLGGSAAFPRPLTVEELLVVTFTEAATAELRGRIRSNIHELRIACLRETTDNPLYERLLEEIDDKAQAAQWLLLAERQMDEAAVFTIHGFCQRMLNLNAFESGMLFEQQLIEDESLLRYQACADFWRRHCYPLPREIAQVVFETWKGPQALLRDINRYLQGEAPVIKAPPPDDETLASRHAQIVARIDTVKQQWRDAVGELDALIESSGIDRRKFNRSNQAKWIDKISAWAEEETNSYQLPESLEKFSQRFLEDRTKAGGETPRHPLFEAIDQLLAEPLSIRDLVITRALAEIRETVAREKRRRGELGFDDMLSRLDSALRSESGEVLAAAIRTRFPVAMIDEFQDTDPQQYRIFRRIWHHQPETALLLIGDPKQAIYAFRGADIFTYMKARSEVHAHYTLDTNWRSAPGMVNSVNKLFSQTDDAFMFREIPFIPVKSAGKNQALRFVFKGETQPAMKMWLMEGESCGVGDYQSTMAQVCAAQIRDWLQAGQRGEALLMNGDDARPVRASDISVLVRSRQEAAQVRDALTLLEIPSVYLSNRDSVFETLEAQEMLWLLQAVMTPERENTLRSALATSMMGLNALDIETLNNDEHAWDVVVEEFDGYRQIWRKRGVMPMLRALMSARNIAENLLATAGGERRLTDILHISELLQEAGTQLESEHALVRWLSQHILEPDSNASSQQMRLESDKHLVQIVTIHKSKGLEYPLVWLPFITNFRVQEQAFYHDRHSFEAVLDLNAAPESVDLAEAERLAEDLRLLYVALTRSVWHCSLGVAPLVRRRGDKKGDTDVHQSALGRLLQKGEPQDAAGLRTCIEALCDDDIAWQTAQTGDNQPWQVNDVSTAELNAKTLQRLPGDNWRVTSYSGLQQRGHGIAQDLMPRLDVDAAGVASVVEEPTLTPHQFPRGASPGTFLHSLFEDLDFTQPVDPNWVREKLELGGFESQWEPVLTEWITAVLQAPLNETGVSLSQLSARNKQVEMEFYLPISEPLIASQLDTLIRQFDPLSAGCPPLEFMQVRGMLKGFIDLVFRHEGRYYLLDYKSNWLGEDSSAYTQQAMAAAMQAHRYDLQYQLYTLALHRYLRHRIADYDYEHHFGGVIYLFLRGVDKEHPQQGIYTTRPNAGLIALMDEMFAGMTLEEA
Kind of assay: RecBCD inhibition via phage-restricted bacterial growth – absorbance, V66 E. coli, mutant T4 phage, counter-screen for AddAB inhibitor project, dose response (AID 492957). Type of assay: functional, cell-based, Escherichia coli str. K-12 substr. MG1655.
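Wherever IC50 Mean is given: confirmatory dose-response retesting of NadD inhibitor hits first found in an ultra-high-throughput screen.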

Chain of Protein disulfide-isomerase (P07237 whole entry): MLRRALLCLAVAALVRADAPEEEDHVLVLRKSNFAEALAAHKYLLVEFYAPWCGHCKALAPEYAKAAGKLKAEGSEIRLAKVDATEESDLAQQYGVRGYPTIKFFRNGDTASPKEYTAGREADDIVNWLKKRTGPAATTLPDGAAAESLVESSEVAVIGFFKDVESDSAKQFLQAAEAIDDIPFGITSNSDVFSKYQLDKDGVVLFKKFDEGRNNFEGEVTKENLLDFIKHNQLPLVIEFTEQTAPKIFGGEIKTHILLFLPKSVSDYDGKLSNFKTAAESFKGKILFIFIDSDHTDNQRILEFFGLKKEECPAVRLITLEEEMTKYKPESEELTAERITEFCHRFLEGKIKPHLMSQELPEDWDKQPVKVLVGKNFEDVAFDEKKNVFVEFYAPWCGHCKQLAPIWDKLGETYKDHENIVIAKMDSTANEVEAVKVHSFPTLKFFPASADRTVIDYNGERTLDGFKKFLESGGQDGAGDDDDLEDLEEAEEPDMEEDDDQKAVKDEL
Chain of Photoreceptor-specific nuclear receptor (Q9Y5X4 whole entry, the tested form may be a part): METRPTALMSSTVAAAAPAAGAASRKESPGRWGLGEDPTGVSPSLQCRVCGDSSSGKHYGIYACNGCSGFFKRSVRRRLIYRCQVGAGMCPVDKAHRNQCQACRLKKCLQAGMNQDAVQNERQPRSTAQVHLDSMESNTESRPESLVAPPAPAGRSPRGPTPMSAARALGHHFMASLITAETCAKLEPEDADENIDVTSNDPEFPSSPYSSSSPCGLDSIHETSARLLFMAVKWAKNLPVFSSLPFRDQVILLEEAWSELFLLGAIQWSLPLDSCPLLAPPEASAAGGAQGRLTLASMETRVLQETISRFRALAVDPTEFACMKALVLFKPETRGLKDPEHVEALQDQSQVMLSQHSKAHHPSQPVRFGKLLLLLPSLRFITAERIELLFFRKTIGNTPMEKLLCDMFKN

Regarding `Cc1c(O)ccc2c(CN3CCN(C/C=C/c4ccccc4)CC3)cc(=O)oc12`, the AC50 – broadly, the concentration at which the activity in the assay is half-maximal – in assay [1] was 19.5 µM (active).

Consider `COc1cccc(/C=C2\SC(=S)N(CCCC(=O)N(CCO)c3ccccc3)C2=O)c1`, for which the AC50 in assay [2] was 41.7 µM (active). Moreover, the half-maximal effective concentration (EC50) (commonly the concentration at which the effect is half-maximal) with BJ [3] is > 150 µM (not active); at Protein RecA, 7.22 µM (active); with BJ [4], > 75 µM (inconclusive); in the assay on BJ [5], 3.1 µM (inconclusive); in the assay with BJ [6], > 66.7 µM (inactive); in assay [7] it was 6.07 µM (inconclusive).

Take `COc1ccc2c(CC(=O)OCC(=O)N(C)c3c(N)n(Cc4ccccc4)c(=O)[nH]c3=O)coc2c1`: the concentration at half-maximal activity (AC50) in assay [8] was 21.2 µM (active); in assay [1], 5.45 µM (active).

`Cc1ccc(NCc2nnc(SCC(=O)c3ccccc3)n2Cc2ccco2)c(C)c1`: the IC50 in [9] is 23 µM (active); in assay [10], 12.1 µM (active).

Consider `CCOC(=O)C1(CCOc2ccccc2)CCN(Cc2cc(OC)c(O)cc2Cl)CC1`, for which the AC50 in [1] was 6.03 µM (active).

With `NC(=O)c1nn(-c2ccccc2)nc1NC(=O)CSc1nnnn1-c1ccc(Cl)cc1`, the IC50 in assay [11] was 2.27 µM (active).

On to `Cc1cc(O)cc2c1C1CCC3(C)C(=O)CCC3C1C=C2` (stereo not given), for which, in assay [1], the concentration at half-maximal activity (AC50) is 19.5 µM (active).

As to `c1ccc(-c2cc(CSc3nc4ccccc4[nH]3)on2)cc1`, the AC50 was 3.76 µM (active) in assay [8] and 58.3 µM (active) in [12]. Also, the IC50 in assay [11] is 4.61 µM (active); in assay [13], > 119 µM (inactive); on Exodeoxyribonuclease V, > 119 µM (inactive).

For the origin of these results see ChEMBL document CHEMBL1201862, “PubChem BioAssay data set” (2004).
